Experimental data from patent US11312688B2, “Pyrazole compound” (Sumitomo Dainippon Pharma Co., Ltd., priority 2011, dated 2022).
Where two headings read alike, the source gives them in different places.

Key:
[1] = target: T1, human serotonin 2C receptor (h-5-HT2C) (Homo sapiens (Human), UniProt P28335); assay: 5-HT2C receptor agonistic action assay (FLIPR Calcium 4, h-5-HT2C/CHO cells; agonistic / inverse agonistic action); assay type: cell-based
Description: 3-1. The Cells and Inoculation Thereof
In the experiment, human serotonin 2C receptor (h-5-HT2C) was expressed in CHO cells (h-5-HT2C/CHO). The cells were incubated with UltraCHO Lipuid (trademark) (manufactured by BioWhitakker) containing 1% FBS, 400 μg/mL Geneticin, 100 U/mL penicillin-100 μg/mL streptomycin (all manufactured by Sigma Aldrich) and 250 μg/mL Zeosin (manufactured by InvivoGen) in an incubator containing 5% CO2. On the day before using the cells, they were detached and collected using 250 μg/mL Trypsin solution (manufactured by Nacalai Tesque), then inoculated in a 96 well flat clear bottom black polystyrene TC-treated microplates (manufactured by Corning) at 40000 cells/well/60 μL in an incubator containing 5% CO2 for 16 hours to 24 hours.
3-2. 5-HT2C Receptor Agonistic Action Assay
The 5-HT2C receptor agonistic action was evaluated with FLIPR Calcium 4 Assay kit (manufactured by Molecular Devices). In specific, to the cells inoculated in the plate were added Component A of FLIPR Calcium 4 Assay kit dissolved in 100 mL of HHBP buffer (1×Hanks buffer, 20 mmol/L HEPES, both manufactured by Gibco) at an amount of 40 μL/well, and the cells were incubated in an incubator containing 5% CO2 for 1 hour. Then, the cells were set in FLIPR TETRA (trademark) (manufactured by Molecular Devices), to the cells was added the test material diluted with HHBP buffer, 2.5 mmol/L Probenecid (manufactured by Sigma) (concentration after dilution: 10 μmol/L) at an amount of 20 μL/well, and the fluorescence was measured. Then, in order to evaluate the antagonistic action of the test material, 20 μL/well of 5-HT solution (manufactured by Sigma, final concentration: 0.1 nmol/L) was further added to the cells, and the fluorescence was measured.
The 5-HT2C receptor agonistic action of each test material was calculated as a rate of fluorescence enhancement wherein 100% was defined as a value when the cells were given 10 μmol/L 5-HT. Furthermore, the 5-HT2C receptor inverse agonistic action was calculated as a rate of fluorescence decay wherein −100% was defined as a value when the cells were given 10 μmol/L SB206553 (manufactured by Sigma Aldrich). A lower value of the 5-HT2C receptor agonistic action of the test material means that the material has a higher antagonistic action. In particular, when the value of the 5-HT2C receptor agonistic action of the test material is below 0%, the material has an inverse agonistic action for 5-HT2C receptor.

[2] = target: T1, human serotonin 2C receptor (h-5-HT2C); assay: [3H] mesulergine binding assay to evaluate affinity for human 5-HT2C receptor; conditions: Test Ex. 2, h-5-HT2C/CHO membrane preparation, read-out: 5-HT2C receptor binding inhibition constant Ki
Description: Mesulergine Binding Assay to Evaluate Affinity for Human 5-HT2C Receptor
Preparation of the Cells and Membrane Preparations
In the experiment, human serotonin 2C receptor (h-5-HT2C) was expressed in CHO cells (h-5-HT2C/CHO). The cells were incubated with UltraCHO Lipuid (trademark) (manufactured by BioWhitakker) containing 1% FBS, 400 μg/mL Geneticin, 100 U/mL penicillin-100 μg/mL streptomycin (all manufactured by Sigma Aldrich) and 250 μg/mL Zeosin (manufactured by InvivoGen) in an incubator containing 5% CO2; detached and collected using 50 mmol/L Tris-HCl (pH=7.4); homogenized with a homogenizer manufactured by Teflon (trademark); and then centrifuged (48,000×g, 25 min, 4° C.). […]
A solution of 200 μL in total was prepared by mixing 50 μL of [^3H] mesulergine (manufactured by GE Healthcare) diluted with 50 mmol/L Tris-HCl (pH=7.4) (final concentration: about 2 nmol/L), 149 μL of the h-5-HT2C/CHO membrane preparation (protein amount: 20 μg/well), and 1 μL of the test drug dissolved in dimethylsulfoxide. […] The glass fiber filter was washed twice with 250 μL of 50 mmol/L Tris-HCl (pH=7.4), placed in a plastic vial containing 4 mL of liquid scintillator (ACS-II, manufactured by Amersham) or Ecoscint A (manufactured by National Diagnostics), and the remaining radioactivity on the filter paper was assayed with a liquid scintillation counter. […]

[3] = target: human serotonin transporter (h-SERT) (Homo sapiens (Human), UniProt P31645); assay: [3H] citalopram binding assay to evaluate human serotonin reuptake inhibitory action (h-SERT binding assay); conditions: h-SERT binding inhibition constant Ki, Test Ex. 1
Description: Citalopram Binding Assay to Evaluate Human Serotonin Reuptake Inhibitory Action
In the experiment, human serotonin transporter (h-SERT) was expressed in CHO cells (h-SERT/CHO). The cells were incubated with F12 containing 10% FCS, 500 μg/mL Geneticin and 100 U/mL penicillin-100 μg/mL streptmycin (all manufactured by Sigma Aldrich) in an incubator containing 5% CO2; detached and collected using a SERT buffer [50 mmol/L Tris-HCl comprising 120 mmol/L NaCl and 5 mmol/L KCl (pH=7.4)]; homogenized with a homogenizer manufactured by Teflon (trademark); and then centrifuged (50,000×g, 30 min, 4° C.). The precipitate was suspended again in the appropriate amount of SERT buffer (to give a membrane preparation), and stored at −80° C. until used. The amount of protein in the membrane preparation was assayed by Dye Reagent Concentrate (manufactured by BIO-RAD) using bovine serum albumin (manufactured by Sigma Aldrich) as a standard.
The [^3H] citalopram binding was measured according to the method disclosed in Owens M. J. et al., J. Pharm. […] The glass fiber filter was washed twice with 250 HL of the SERT buffer, placed in a plastic vial containing 4 mL of liquid scintillator (ACS-II, manufactured by Amersham) or Ecoscint A (manufactured by National Diagnostics), and the remaining radioactivity on the filter paper was assayed with a liquid scintillation counter.

[4] = Test Ex. 3, test material 10 μmol/L, 100% = 10 μmol/L 5-HT, −100% = 10 μmol/L SB206553, below 0% = inverse agonistic action

T1 sequence (P28335 whole entry, looked up): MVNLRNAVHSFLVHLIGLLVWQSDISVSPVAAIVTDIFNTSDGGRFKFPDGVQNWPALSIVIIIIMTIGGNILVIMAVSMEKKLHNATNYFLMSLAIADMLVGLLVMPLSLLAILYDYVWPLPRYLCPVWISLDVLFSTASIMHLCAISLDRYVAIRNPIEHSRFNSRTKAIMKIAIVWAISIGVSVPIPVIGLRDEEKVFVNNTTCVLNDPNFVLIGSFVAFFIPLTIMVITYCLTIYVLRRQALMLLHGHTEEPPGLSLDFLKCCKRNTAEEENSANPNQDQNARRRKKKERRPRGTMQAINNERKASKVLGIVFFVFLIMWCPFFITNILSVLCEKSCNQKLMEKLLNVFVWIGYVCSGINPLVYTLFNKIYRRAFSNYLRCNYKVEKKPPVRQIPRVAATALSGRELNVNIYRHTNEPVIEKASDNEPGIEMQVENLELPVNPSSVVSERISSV

| Compound | 5-HT2C receptor agonistic action [1] [%] | other results |
| --- | --- | --- |
| CNCc1cc(OCc2ccccc2)n(CCCc2ccccc2)n1 [Example 3, 1-[5-(Benzyloxy)-1-(3-phenylpropyl)-1H-pyrazol-3-yl]-N-methylmethanamine] | −91 |  |
| N-Benzyl-1-(cyclohexylmethyl)-3-[(methyl]-1H-pyrazol-5-amine Dihydrochloride [Example 357] | −120 |  |
| CNCc1cc(OCc2cc(Cl)ccc2F)n(CC2CCCCO2)n1 (single isomer, unassigned; (-)) [Example 474, (−)-1-{5-[(5-chloro-2-fluorobenzyl)oxy]-1-(tetrahydro-2H-pyran-2-ylmethyl)-1H-pyrazol-3-yl}-N-methylmethanamine] | −111 | Ki [2]: 16 nM; Ki [3]: 11 nM |
| CNCc1cc(OCc2ccccc2)n(C(CF)C2CCCCC2)n1.Cl (stereo not drawn) [Example 330, 1-[5-(Benzyloxy)-1-(1-cyclohexyl-2-fluoroethyl)-1H-pyrazol-3-yl]-N-methylmethanamine Hydrochloride] | −82 |  |
| CNCc1cc(OCc2cc(Cl)ccc2F)n(CC2CCCCO2)n1 (single isomer, unassigned; (+)) [Example 475, (+)-1-{5-[(5-chloro-2-fluorobenzyl)oxy]-1-(tetrahydro-2H-pyran-2-ylmethyl)-1H-pyrazol-3-yl}-N-methylmethanamine] | −95 | Ki [2]: 19 nM; Ki [3]: 9.2 nM |
| CCC(CC)n1nc(CNC)cc1OCc1ccc(F)cc1Cl [Example 253] |  | 5-HT2C receptor agonistic action [1, 4]: −86% |
| CNCc1cc(OCc2ccccc2)n(C(C)C2CCCC2)n1.Cl (stereo not drawn) [Example 288, 1-[5-(Benzyloxy)-1-(1-cyclopentylethyl)-1H-pyrazol-3-yl]-N-methylmethanamine Hydrochloride] | −80 |  |
| CNCc1cc(OCc2cc(Cl)ccc2F)n(CC2(OC)CCCCC2)n1 [Compound 434] | −87 |  |
| CNCc1cc(OCc2cc(F)ccc2F)n(CCC(C)(C)F)n1.Cl [Example 481, 1-{5-[(2,5-Difluorobenzyl)oxy]-1-(3-fluoro-3-methylbutyl)-1H-pyrazol-3-yl}-N-methylmethanamine Hydrochloride] | −109 |  |
| CNCc1cc(OCc2ccccc2)n(CC2CCCCC2)n1 [Example 5, 1-[5-(Benzyloxy)-1-(cyclohexylmethyl)-1H-pyrazol-3-yl]-N-methylmethanamine] | −91 |  |
| CNCc1cc(OCc2cccc(OC)c2)n(CC2CCCCC2)n1 [Compound 42] | −106 |  |
| CNCc1cc(OC(C)c2cccc(Cl)c2)n(CC2CCCCC2)n1.Cl (stereo not drawn) [Example 350, 1-{5-[1-(3-Chlorophenyl)ethoxy]-1-(cyclohexylmethyl)-1H-pyrazol-3-yl}-N-methylmethanamine Hydrochloride] | −92 |  |
| CNCc1cc(OCc2cc(F)c(F)cc2F)n(CCC2CC2)n1 [Example 426] | −99 |  |
| CNCc1cc(OCc2ccccc2)n(C(CO)C2CCCCC2)n1.Cl (stereo not drawn) [Example 328, 2-{5-(Benzyloxy)-3-[(methylamino)methyl]-1H-pyrazol-1-yl}-2-cyclohexyl-ethanol Hydrochloride] | −116 |  |
| CNC(C)c1cc(OCc2cc(F)ccc2F)n(CCC2CCCC2)n1 (stereo not drawn) [Example 315, 1-{1-(2-cyclopentylethyl)-5-[(2,5-difluorobenzyl)oxy]-1H-pyrazol-3-yl}-N-methylethanamine] |  | 5-HT2C receptor agonistic action [1, 4]: −84% |
| CNCc1cc(OCc2cc(Cl)ccc2F)n(CCC(C)(C)F)n1.Cl [Example 482, 1-{5-[(5-Chloro-2-fluorobenzyl)oxy]-1-(3-fluoro-3-methylbutyl)-1H-pyrazol-3-yl}-N-methylmethanamine Hydrochloride] | −116 |  |

| Compound | 5-HT2C receptor agonistic action [1] [%] | other results |
| --- | --- | --- |
| CNCc1cc(OCc2cc(Cl)ccc2F)n(CC(C)(C)C)n1 [Example 259, 1-{5-[(5-chloro-2-fluorobenzyl)oxy]-1-(2,2-dimethylpropyl)-1H-pyrazol-3-yl}-N-methylmethanamine] |  | 5-HT2C receptor agonistic action [1, 4]: −119% |
| CCNCc1cc(OCc2cc(F)ccc2F)n(CC2CCCCC2)n1 [Example 344, N-({1-(Cyclohexylmethyl)-5-[(2,5-difluorobenzyl)oxy]-1H-pyrazol-3-yl}methyl)ethanamine] | −82 |  |
| CNCc1cc(OCc2cc(Cl)ccc2F)n(CCC2(O)CCCC2)n1.Cl [Example 435, 1-(2-{5-[(5-Chloro-2-fluorobenzyl)oxy]-3-[(methylamino)-methyl]-1H-pyrazol-1-yl}ethyl)cyclopentanol Hydrochloride] | −125 |  |
| CNCc1cc(OCc2cc(Cl)ccc2F)n(CCC(C)(C)OC)n1 [Example 275, 1-{5-[(5-chloro-2-fluorobenzyl)oxy]-1-(3-methoxy-3-methylbutyl)-1H-pyrazol-3-yl}-N-methylmethanamine] | −88 |  |
| CNCc1cc(OC(F)(F)c2ccccc2)n(CC2CCCCC2)n1.Cl [Example 349, 1-{1-(Cyclohexylmethyl)-5-[difluoro(phenyl)methoxy]-1H-pyrazol-3-yl}-N-methylmethanamine Hydrochloride] | −82 |  |
| CNCc1cc(OCc2ccccc2F)n(Cc2ccc(F)cc2)n1 [Example 218, 1-{1-(4-fluorobenzyl)-5-[(2-fluorobenzyl)oxy]-1H-pyrazol-3-yl}-N-methylmethanamine] | −111 |  |
| CNC(C)c1cc(OCc2cc(F)ccc2F)n(CCC2CCCC2)n1 (single isomer, unassigned; (-)) [Example 476, (−)-1-{1-(2-cyclopentylethyl)-5-[(2,5-difluorobenzyl)-oxy]-1H-pyrazol-3-yl}-N-methylethanamine] |  | 5-HT2C receptor agonistic action [1, 4]: −72% |
| CNCc1cc(OCc2cc(F)ccc2F)n(CCC(C)(C)C)n1 [Example 266, 1-{5-[(2,5-difluorobenzyl)oxy]-1-(3,3-dimethylbutyl)-1H-pyrazol-3-yl}-N-methylmethanamine] |  | 5-HT2C receptor agonistic action [1, 4]: −86% |
| Cl.NCc1cc(OCc2cc(F)ccc2F)n(CC2CCCC2)n1 [Example 347, 1-{1-(Cyclopentylmethyl)-5-[(2,5-difluorobenzyl)oxy]-1H-pyrazol-3-yl}methanamine Hydrochloride] | −114 |  |
| CNCc1cc(SCc2ccccc2)n(Cc2ccccc2)n1.Cl [Example 355, 1-[1-Benzyl-5-(benzylsulfanyl)-1H-pyrazol-3-yl]-N-methylmethanamine Hydrochloride] | −72 |  |
| CNCc1cc(OCc2cc(Cl)ccc2F)n(CCC(C)OC)n1 (stereo not drawn) [Compound 405] | −90 |  |
| CNCc1cc(OCc2ccc(F)cc2C)n(CC2CCCCO2)n1 (stereo not drawn) [Compound 108] | −117 |  |
| CNCc1cc(OCc2ccc(F)cc2F)n(CC2CCCC2)n1 [Example 144, 1-{1-(cyclopentylmethyl)-5-[(2,4-difluorobenzyl)oxy]-1H-pyrazol-3-yl}-N-methylmethanamine] | −127 |  |
| CNC(C)c1cc(OCc2cc(F)ccc2F)n(CCC2CCCC2)n1 (single isomer, unassigned; (+)) [Example 477, (+)-1-{1-(2-cyclopentylethyl)-5-[(2,5-difluorobenzyl)-oxy]-1H-pyrazol-3-yl}-N-methylethanamine] |  | 5-HT2C receptor agonistic action [1, 4]: −94% |
| CNCc1cc(OCc2cccc(Cl)c2)n(CC2CCc3ccccc3O2)n1.Cl (stereo not drawn) [Example 341, 1-{5-[(3-Chlorobenzyl)oxy]-1-(3,4-dihydro-2H-chromen-2-yl-methyl)-1H-pyrazol-3-yl}-N-methylmethanamine Hydrochloride] | −71 |  |
| CNCc1cc(OCc2cc(Cl)ccc2F)n(CC(C)C)n1 [Example 256, 1-{5-[(5-chloro-2-fluorobenzyl)oxy]-1-(2-methylpropyl)-1H-pyrazol-3-yl}-N-methylmethanamine] |  | 5-HT2C receptor agonistic action [1, 4]: −97% |
